Measurements: PMC7845594, “Novel Immune Modulators Enhance Caenorhabditis elegans Resistance to Multiple Pathogens” (mSphere, 2021)
Several values for one entry are separate records, joined by “and”; a condition that tells them apart may be missing. Identical values can stand only once. Like-named read-outs stand apart in the source and are kept apart here.

Experiments:
[1] = system: glp-4(bn2) worms exposed to E. faecalis strain OG1RF; assay: E. faecalis infection assay (liquid); type: in vivo, Caenorhabditis elegans; settings: for E. faecalis EC: glp-4(bn2) worms, 80 h, ± 95% confidence interval
Experimental: Enterococcus faecalis and Staphylococcus aureus are Gram-positive bacterial species frequently responsible for nosocomial infections ([24], [25]). These bacterial species readily infect C. elegans and liquid-based pathogenesis models have been developed for each ([26][–][28]). Sterile, young adult glp-4(bn2) worms were incubated with either E. faecalis or S. aureus and various concentrations of the five compounds. […] Importantly, P. aeruginosa, E. faecalis, and S. aureus use very different mechanisms to kill C. elegans (pyoverdine-mediated mitochondrial damage, gelatinase-mediated damage to the colonized intestine, and multi-toxin-mediated intestinal effacement and damage, respectively) ([29][–][33]). The ability of these compounds to rescue against multiple pathogens that utilize a diverse set of virulence factors and mechanisms of pathogenesis further supports the idea that at least a portion of these compounds’ activity is mediated by stimulating innate immunity.
FIG 2 A subset of LK molecules rescue against E. faecalis and S. aureus. […] Compounds were serially diluted 2-fold, and young adult glp-4(bn2) worms were incubated with the pathogen for 80 h (E. faecalis) or 96 h (S. aureus). The concentrations shown are based on the mean value for at least three replicates. (B and C) Percentages of dead C. elegans after exposure to E. faecalis (B) or S. aureus (C). A representative biological replicate is shown. Each condition included at least six wells per replicate, each well contained approximately 20 worms. Three biological replicates were performed. *, P < 0.05; **, P < 0.01; ***, P < 0.001. P values were calculated using Student’s t test. Error bars represent the standard error of the mean.
The E. faecalis infection assay was performed as previously described ([27]). A single colony was used to inoculate a 5 ml of BHI liquid culture. After 16 to 24 h, 400 µl of this culture was spread on a BHI agar plate and placed at 37°C for 24 h. Next, 384-well plates were made containing 10% BHI, and E. faecalis was removed from the plate by scraping and resuspended in S Basal medium to a final OD of 0.03. Compounds at the desired concentrations or DMSO (final concentration, 1%) were then added to each well. After 3 days, the worms were transferred to new plates using a 0.05% Tween solution to prevent background fluorescence from E. faecalis biofilm. Subsequent washing, staining, imaging, and image analysis was performed identically to Pseudomonas liquid killing. EC values were defined as the minimum concentration that provided statistically significant rescue. At least three biological replicates were performed.

[2] = system: P. aeruginosa strain PA14; assay: MIC assay (bacterial growth, no worms); type: cell-based, Pseudomonas aeruginosa; settings: for MIC: Pseudomonas aeruginosa; for MIC / EC: ratio of MIC to EC, P. aeruginosa PA14
Experimental: For the first round of characterization, 69 novel small molecules previously selected on the basis of their ability to improve C. elegans survival during exposure to P. aeruginosa in liquid ([14]) were tested for the ability to interfere with bacterial growth. MICs were determined for each compound by growing P. aeruginosa strain PA14 in static culture in 384-well plates with serial 2-fold dilutions of compounds. No worms were used in these assays. Next, effective rescue concentrations (EC; defined as the minimum concentration that results in statistically significant survival, compared to dimethyl sulfoxide [DMSO]) ([15], [18]) were determined for each compound using the standard P. aeruginosa liquid killing assay. Sterile glp-4(bn2) worms were used in all liquid-based assays to limit artifacts (i.e., unlaid eggs will hatch and cause matricide).
Plates were allowed to grow for 24 h at 37°C without shaking. Growth was scored visually on the basis of turbidity. At least three biological replicates were performed.

[3] = P. aeruginosa PA14, LB media, static culture, no worms, read-out: MIC

Structure (SMILES) | E. faecalis EC [1] | MIC [2, 3] [µM] | MIC / EC [2] | MIC ([2]; PA14) [µM] | Need of MDT-15 for rescue (mdt-15(RNAi)) ([1]; E. faecalis, 32 µM)
CN(C)/N=N/c1ccc(-c2cn(Cc3ccccc3)cn2)cc1 [LK38] | > 64 µM | > 655 | > 97.8 | – | –
CCN(CC)/N=N/c1ccc(C(=O)O)cc1 [LK35] | > 64 µM | > 908 | > 52.4 | – | –
CNC(=O)Oc1c(Br)cc2sc(=O)oc2c1Br [LK34] | 18.7 µM and 18.7 ± 8.7 µM | – | > 56.1 | > 522 | –
COC(=O)/C=C/C(=O)Nc1ccccc1 [LK32] | 8 µM and 8 ± 0.0 µM | > 975 | > 30.5 | – | –
O=c1cc(CNc2ccc(Br)cc2)nc2sccn12 [LK56] | 10.7 µM and 10.7 ± 3.3 µM | > 595 | > 81.5 | – | required
